Measured values published in BindingDB's records for doi:10.1021/jm00091a006 (University of Arizona, 1992).

Assay: Compound was evaluated for its inhibitory potency against Opioid receptor delta 1 of Guinea pig ileum

**Q.** Which IC50 does the source give for Cc1cc(O)ccc1C[C@@H](N)C(=O)N[C@H]1C(=O)NCC(=O)N[C@@H](Cc2ccccc2)C(=O)N[C@@H](C(=O)O)C(C)(C)SSC1(C)C here?
**A.** The IC50 was 6.61 µM.

**Q.** For C[C@@H](c1ccc(O)cc1)[C@H](N)C(=O)N[C@H]1C(=O)NCC(=O)N[C@@H](Cc2ccccc2)C(=O)N[C@@H](C(=O)O)C(C)(C)SSC1(C)C, which IC50 is on record?
**A.** Its IC50 is 7.18 µM.

**Q.** For C[C@H](c1ccc(O)cc1)[C@H](N)C(=O)N[C@H]1C(=O)NCC(=O)N[C@@H](Cc2ccccc2)C(=O)N[C@@H](C(=O)O)C(C)(C)SSC1(C)C, which IC50 is on record?
**A.** The IC50 was 3.4 µM.

**Q.** With C[C@H](c1ccc(O)cc1)[C@@H](N)C(=O)N[C@H]1C(=O)NCC(=O)N[C@@H](Cc2ccccc2)C(=O)N[C@@H](C(=O)O)C(C)(C)SSC1(C)C as the compound, how does the IC50 read?
**A.** The IC50 was over 100 µM.
